This note sets out measurements from patent US20100286028A1, “USE OF A PEPTIDE AS A THERAPEUTIC AGENT” (priority 2007, published 2010).

One assay relates to HIV-1IIIB. The assay is described as follows: HIV-1 antiviral assay in CEM-SS cells. As to conditions: peptides 10 micrograms per ml; CEM-SS cells plus HIV-1IIIB; MTS readout 6 days post-infection.
Another assay relates to HCMV strain AD169. The assay is described as follows: HCMV plaque formation assay in MRC-5 cells. As to conditions: peptides 10 micrograms per ml, 7-10 days.
For a further assay, the system named is murine spleen cells. The assay can be described thus: Th1/Th2 cytokine profiling assay. As to conditions: 10 micrograms per ml, Ovalbumin-restimulated spleen cells, 72 hours. The format is cell-based, Balb/c mice.
Assay [1] relates to Primary Human endothelial cells (HUVEC). The assay can be described thus: Endothelial cell migration assay. The format is cell-based. As to conditions: 10 micrograms per ml, 22 hours, combination peptide 1:peptide 2 1.10 mole:0.90 mole.
The subject of another assay is HUVEC. The assay is described as follows: Endothelial tube formation assay. Type of assay: cell-based, human. As to conditions: 10 micrograms per ml, 20 hours, average tubule length, combination peptide 1:peptide 2 1.10 mole:0.90 mole. From the text:
Positive control was vehicle only.

Another assay concerns Streptococcus pneumoniae. The assay can be described thus: Streptococcus pneumoniae assay. Type of assay: cell-based. As to conditions: 10 micrograms per ml; 5x10^5 CFU/mL; read visually; combination 0.95 mole peptide 1 and 1.05 mole peptide 2 and all other molar ratios from 1:100 to 100:1.
Assay [2] concerns hepatitis B virus (HBV) ayw strain. The assay can be described thus: HBV experimental assay system (HepG2-2.2.15, TaqMan PCR of secreted HBV DNA). Type of assay: cell-based. As to conditions: 10 micrograms per ml, six days, HBV DNA by TaqMan PCR, combination 0.95 mole peptide 1 and 1.05 mole peptide 2.
The mark [3] stands for this setting: combination 0.95 mole peptide 1 and 1.05 mole peptide 2.

No end group written: not given here.

Text for murine spleen cells: The Balb/c mice (originated in 1923, it is a popular strain and is used in many different research disciplines. Also classified as an inbred from the production of 20 or more successive brother-sister matings, the Balb/c mouse is albino and small in size) were immunized on Days 1, 15, and 29 with Ovalbumin (Ovalbumin is the main protein found in egg white, commonly used to stimulate an immunological reaction in test animals) in PBS (5 micrograms/injection). On day 50, spleens of the mice were harvested (3 weeks after last boost with Ovalbumin). […] Thereafter, additional Ovalbumin was added to the cells at 10 micrograms/ml for in vitro restimulation of the cells. 72 hours later, cell supernatants were harvested and assayed using the Becton Dickinson Mouse Th1/Th2 Cytokine CBA Kit. This kit can be used to measure Interleukin-2 (IL-2), Interleukin-4 (IL-4), Interleukin-5 (IL-5), Interferon-γ (IFN-γ), and Tumor Necrosis Factor-a (TNF-a) protein levels in a single sample.

As for `Cc1cn([C@H]2C[C@H](N=[N+]=[N-])[C@@H](CO)O2)c(=O)[nH]c1=O` [AZT], the “inhibition of HIV-1 activity on tested T-cells” value with HIV-1IIIB was “expected levels of antiviral activity”.

With `Nc1nc(O)c2ncn(COC(CO)CO)c2n1` [Ganciclovir, reference compound], the “inhibition of HCMV plaque formation as compared to the virus control experiment” value with HCMV strain AD169 was “expected levels of antiviral activity”.

For the compound `CC(C)(C)NC(=O)[C@@H]1CN(Cc2cccnc2)CCN1C[C@@H](O)C[C@@H](Cc1ccccc1)C(=O)N[C@H]1c2ccccc2C[C@H]1O` [indinavir], the “inhibition of HIV-1 activity on tested T-cells” value in the assay on HIV-1IIIB is “expected levels of antiviral activity”.

As to “Cys-Tyr-Phe-Gln-Asn-Cys-Pro-Arg-Gly-NH2 (CYFQNCPRG-NH2; ends and bridges not checked) [Peptide 2]”, the “production of IL-4 in murine spleen cells, suppressed by” value with murine spleen cells was 59.6%. Besides, in the assay with murine spleen cells (setting [3]), the “change of the production of IL-5 in murine spleen cells” value is on record as “did not significantly change”; the “production of IFN-γ in murine spleen cells, induced by” value is “did not significantly change”; the “production of IL-2 in murine spleen cells, induced by” value is recorded as “did not significantly change”; the “production of TNF-alpha in murine spleen cells, induced by” value is 24.9%. Besides, the “inhibition of the migration of human endothelial cells” value in assay [1] amounted to 5%. Also, the “increase of the tube formation of human endothelial cells” value in the assay with HUVEC is 4%. Moreover, the “inhibition of the growth of Streptococcus pneumoniae” value in the assay with Streptococcus pneumoniae is recorded as 100%. The “inhibition of HCMV plaque formation as compared to the virus control experiment” value in the assay with HCMV strain AD169 was “did not inhibit”. In assay [2], the “inhibition of HBV replication as compared to the virus control infection” value is on record as 26.3%.

With PALPEDGGSGAFPPGHFKDPKRLY [Peptide 1], in the assay with murine spleen cells (setting [3]), the “change of the production of IL-5 in murine spleen cells” value was “did not significantly change”; the “production of IFN-γ in murine spleen cells, induced by” value worked out at 30.3%; the “production of IL-2 in murine spleen cells, induced by” value is on record as 77.4%; the “production of IL-4 in murine spleen cells, induced by” value is listed as 123.9%. The “production of TNF-alpha in murine spleen cells, induced by” value with murine spleen cells (setting [3]) turned out to be 30.0%. Further, the “inhibition of the migration of human endothelial cells” value in assay [1] was 17%. Besides, the “increase of the tube formation of human endothelial cells” value with HUVEC is on record as 2%. For the same compound, the “inhibition of the growth of Streptococcus pneumoniae” value in the assay on Streptococcus pneumoniae came out at 100%. Also, in the assay with HCMV strain AD169, the “inhibition of HCMV plaque formation as compared to the virus control experiment” value was “did not inhibit”. Further, in assay [2], the “inhibition of HBV replication as compared to the virus control infection” value was 24.3%.
